For 8 molecules, Potency results are on record in ChEMBL document CHEMBL1124053, “Synthesis, pharmacology, and molecular modeling studies of semirigid, nicotinic agonists” (1988).

The assay can be described thus: Potency (reciprocal of the equipotent molar ratio compared to carbamylcholine), estimated by contracture of the frog rectus abdominis muscle. Type of assay: functional.
Regarding `C[C@H](O)C1CC[N+](C)(C)CC1`, the Potency is 0.25.

`C[N+]1(C)CCN(C(=O)C(F)(F)F)CC1`: the Potency is 4.6.

With `CC(=O)C1CC[N+](C)(C)CC1`, the Potency was 9.1.

Turning to `CC(=O)N1CC[N+](C)(C)CC1`, the Potency is given as 2.6.

On to `CC(=O)C1=CC[N+](C)(C)CC1`, for which the Potency is 50.

On to `C[N+]1(C)CC=C(CO)CC1`, for which the Potency is listed as 0.35.

As to `C[N+]1(C)CCC(=NO)CC1`, the Potency is 0.0055.

For the molecule `C[C@H](O)C1=CC[N+](C)(C)CC1`, the Potency was 2.
